Key:
[1] = tested on: collagen-induced aggregation in rabbit platelets; experiment: Inhibition of collagen-induced platelet aggregation in rabbit platelet rich plasma; assay type: cell-based; conditions: Oryctolagus cuniculus, read-out: Inhibition rate of collagen-induced aggregation; for inhibition at 100 µM (stock): Concentration of the test compound solution 10^-4 mole; for inhibition at 10 µM (stock): Concentration of the test compound solution 10^-5 mole
In short: (§1)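 Citrated rabbit PRP adjusted to 600,000 platelets/μl with PPP, preincubated with test compound 1 min at 37° C, then challenged with ADP (solution prepared at 7.5×10^-5 M) or collagen (solution at 200 μg/ml). Aggregation followed by light transmittance; % inhibition relative to control aggregation rate.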

[2] = tested on: ADP-induced aggregation in rabbit platelets; experiment: Inhibition of ADP-induced platelet aggregation in rabbit platelet rich plasma; assay type: cell-based; conditions: Oryctolagus cuniculus, read-out: Inhibition rate of ADP-induced aggregation; for inhibition at 100 µM (stock): Concentration of the test compound solution 10^-4 mole; for inhibition at 10 µM (stock): Concentration of the test compound solution 10^-5 mole
In short: as §1

[3] = Change of blood pressure, intravenous administration, anesthetized dog; assay type: in vivo; design: unit not given here; conditions: femoral artery
In short: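 Pentobarbital-anesthetized (30 mg/kg i.v.), heparinized, thoracotomized dogs of either sex, 8-13 kg, under forced breathing; compound given via femoral vein. Coronary sinus outflow measured by electromagnetic flowmeter in an extracorporeal venous circuit to the carotid; blood pressure recorded from femoral artery.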

coronary artery = experiment: Increased amount of the blood flow in coronary artery, intravenous administration, anesthetized dog; assay type: in vivo
Experimental: The change of blood flow in coronary artery and the change of blood pressure were measured by a method according to Yakura et al., [Japan Journal of Pharmacology, Vol. 57, pages 380-391 (1961)] and according to Taira, et al. [Clin. Exp. Pharmacol. Physiol., Vol. 6, pages 301-316, (1976)].
An adult bastard dog of either sex weighing 8-13 kg was anesthetized with sodium pentobarbital at the rate of 30 mg/kg by intraveneous administration, then the dog was fixed in supination and was theracotomized under a condition of forced breathing. After another intraveneous administration of sodium heparin at the rate of 500 U/kg, 100 U/kg per hour, the dog was subjected to the following experiments.
(2) Intraveneous administration
Morawitz's cannula was cannulated to the coronary sinus venosus through the auricula dextra cordis, and the blood in vein was circulated to the right carotid. The blood flow was measured by an electromagnetic blood flow meter equipped with a blood flow observation probe in the extracorporeal circulation path of the vein. The systolic force was measured by a systolometer (pick-up) placed at the left ventricle of heart, the blood pressure was measured from the femoral artery, and the heart rate was measured from the pulse. A compound to be tested was administered through the cannula being cannulated in femoral vein. The increased amount of the blood flow in coronary artery after the administration of the test compound is shown in Table 4, also the change of blood pressure is shown in Table 5.

| Structure (SMILES) | inhibition at 100 µM (stock) [1] | inhibition at 10 µM (stock) [1] | inhibition at 100 µM (stock) [2] | inhibition at 10 µM (stock) [2] | Change of blood pressure ([3]; 3 micrograms/kg) | Change of blood pressure ([3]; 10 micrograms/kg) | Change of blood pressure ([3]; 30 micrograms/kg) | Change of blood pressure ([3]; 100 micrograms/kg) | Change of blood pressure ([3]; 300 micrograms/kg) | Increased amount of the blood flow in coronary artery (coronary artery; 10 micrograms/kg) | Increased amount of the blood flow in coronary artery (coronary artery; 30 micrograms/kg) | Increased amount of the blood flow in coronary artery (coronary artery; 100 micrograms/kg) | Increased amount of the blood flow in coronary artery (coronary artery; 300 micrograms/kg) | Increased amount of the blood flow in coronary artery (coronary artery; 3 micrograms/kg) | Increased amount of the blood flow in coronary artery (coronary artery; 1000 micrograms/kg) |
| --- | --- | --- | --- | --- | --- | --- | --- | --- | --- | --- | --- | --- | --- | --- | --- |
| COC(=O)C1=C(C)NC(C)=C(C(=O)OCCCOc2ccc3c(c2)NC(=O)CC3)C1c1cccc([N+](=O)[O-])c1 (stereo not shown) [Compound 6, 7-{3-[2,6-Dimethyl-5-methoxycarbonyl-4-(3-nitrophenyl)-1,4-dihydropyridin-3-carboxy]-propoxy}-3,4-dihydrocarbostyril] | 19% | 3% | 15% | 6% | -3 | -5 | -15 | -32 | -44 | 3 mL/min | 25 mL/min | 58 mL/min | 64 mL/min |  |  |
| COC(=O)C1=C(C)NC(C)=C(C(=O)OCCCOc2cccc3c2CCC(=O)N3)C1c1cccc([N+](=O)[O-])c1 (stereo not shown) [Compound 4, 5-{3-[2,6-Dimethyl-5-methoxycarbonyl-4-(3-nitrophenyl)-1,4-dihydropyridin-3-carboxy]-propoxy}-3,4-dihydrocarbostyril] | 23% | 11% | 16% | 4% | -5 | -15 | -25 | -34 | -51 | 8 mL/min | 22 mL/min | 62 mL/min | 90 mL/min | 3 mL/min |  |
| COC(=O)C1=C(C)NC(C)=C(C(=O)OCCOc2ccc3[nH]c(=O)ccc3c2)C1c1cccc([N+](=O)[O-])c1 (stereo not shown) [Compound 10, 6-{2-[2,6-Dimethyl-5-methoxycarbonyl-4-(3-nitrophenyl)-1,4-dihydropyridin-3-carboxy]-ethoxy}carbostyril] | 100% | 50% | 100% | 27% |  | -5 | -9 | -13 | -34 | 2 mL/min | 5 mL/min | 23 mL/min | 43 mL/min |  |  |
| CCN(CCOC(=O)C1=C(C)NC(C)=C(C(=O)OC)C1c1ccccc1)C(=O)CCCOc1ccc2[nH]c(=O)ccc2c1 (stereo not shown) [Compound 36, N--[2,(1,4-Dihydro-2,6-dimethyl-5-methoxycarbonyl-4-phenylpyridin-3-carboxy)ethyl]-N--ethyl-4-(6-carbostyriloxy)butyramide] | 100% | 100% | 98% | 55% |  |  |  |  |  |  |  | 4 mL/min | 12 mL/min |  | 38 mL/min |
| COC(=O)C1=C(C)NC(C)=C(C(=O)OCCCOc2ccc3[nH]c(=O)ccc3c2)C1c1cccc([N+](=O)[O-])c1 (stereo not shown) [Compound 8, 6-{3-[2,6-Dimethyl-5-methoxycarbonyl-4-(3-nitrophenyl)-1,4-dihydropyridin-3-carboxy]-propoxy}carbostyril] | 99% | 27% | 76% | 10% |  |  | -3 | -16 | -33 | 1 mL/min | 2 mL/min | 12 mL/min | 56 mL/min |  |  |
| COC(=O)C1=C(C)NC(C)=C(C(=O)OCCN(C(=O)CCCOc2cccc3[nH]c(=O)ccc23)C2CCCCC2)C1c1cccc([N+](=O)[O-])c1 (stereo not shown) [Compound 33, N--{2-[1,4-Dihydro-2,6-dimethyl-5-methoxycarbonyl-4-(3-nitrophenyl)pyridin-3-carboxy]ethyl}-N--cyclohexyl-4-(5-carbostyriloxy)butyramide] | 100% | 34% | 98% | 25% |  |  |  |  |  |  |  | 1 mL/min | 4 mL/min |  | 48 mL/min |
| COC(=O)C1=C(C)NC(C)=C(C(=O)OCCN(C(=O)CCCOc2ccc3[nH]c(=O)ccc3c2)C2CCCCC2)C1c1ccccc1 (stereo not shown) [Compound 35, N--[2-(1,4-Dihydro-2,6-dimethyl-5-methoxycarbonyl-4-phenylpyridin-3-carboxy)ethyl]-N--cyclohexyl-4-(6-carbostyriloxy)butyramide] | 100% | 100% | 100% | 89% |  | -4 | -6 | -9 | -26 |  |  | 5 mL/min | 17 mL/min |  | 47 mL/min |
| COC(=O)C1=C(C)NC(C)=C(C(=O)OCCCOc2ccc3c(c2)CCC(=O)N3)C1c1cccc([N+](=O)[O-])c1 (stereo not shown) [Compound 5, 6-{3-[2,6-Dimethyl-5-methoxycarbonyl-4-(3-nitrophenyl)-1,4-dihydropyridin-3-carboxy]-propoxy}-3,4-dihydrocarbostyril] | 38% | 12% | 20% | 4% |  |  |  |  |  | 12 mL/min | 47 mL/min | 89 mL/min | 77 mL/min | 3 mL/min |  |
| COC(=O)C1=C(C)NC(C)=C(C(=O)OCCN(C(=O)CCCOc2ccc3[nH]c(=O)ccc3c2)C2CCCCC2)C1c1ccccc1[N+](=O)[O-] (stereo not shown) [Compound 34, N--{2-[1,4-Dihydro-2,6-dimethyl-5-methoxycarbonyl-4-(2-nitrophenyl)pyridin-3-carboxy]ethyl}-N--cyclohexyl-4-(6-carbostyriloxy)butyramide] | 100% | 100% | 94% | 98% |  |  |  |  |  |  |  | 22 mL/min | 47 mL/min |  | 54 mL/min |
